≈ marks a conversion by molar mass, not a printed value. Where two headings read alike, the source gives them in different places.
Columns and labels:
Type in all cases: cell-based
[1] = tested on: methicillin-susceptible Staphylococus aureus (MSSA); experiment: MIC, NCCLS microdilution broth procedure, MSSA; conditions: for MIC: Staphylococcus aureus, read-out: minimum inhibitory concentration (MIC)
Description: (§1) The following table identifies specific species of compounds according to the present invention and information concerning their associated antibacterial activity. The antibacterial activity of three compounds in accordance with the present invention (N-biphenyl-methyl-norvacomycin (A); N-chloro-biphenyl-methyl-norvacomycin (B) and desmethyl-vancomycin-gly-p-n-octyloxybenzyl (C)) were tested and compared to unmodified vancomycin (Van) and norvancoycin (Nor). MIC (minimum inhibitory concentration) was measured according to NCCLS standards using the microdilution broth procedure. Serial dilutions of the compounds were placed in a 96-well microplate containing Mueller-Hinton medium. Based on absorbance of 600 nm, diluted overnight cultures were placed in the wells at a final concentration of 5×10^5 cfu/mL. The plate was then placed in a culture box at 35° C. The next day, MIC was determined by visual observation of the plates.
(§2) The glycopeptides were tested against a variety of strains well known in the art for such testing, including methicillin-susceptible Staphylococus aureus (MSSA), methicillin-susceptible Staphylococus epidermidis (MSSE), methicillin-resistant Staphylococus aureus (MRSA), methicillin-resistant Staphylococus epidermidis (MRSE), and glycopeptide-intermediate Staphylococus aureus (GISA). Results are shown in the Table 1 as minimum inhibitory concentration (MIC) in units of μg/ml: […]

[2] = tested on: methicillin-resistant Staphylococus aureus (MRSA); experiment: MIC, NCCLS microdilution broth procedure, MRSA; conditions: for MIC: Staphylococcus aureus, MRSA
Description: as §1, §2

[3] = tested on: methicillin-susceptible Staphylococus epidermidis (MSSE); experiment: MIC, NCCLS microdilution broth procedure, MSSE; conditions: for MIC: read-out: minimum inhibitory concentration (MIC)
Description: as §1, §2

[4] = tested on: methicillin-resistant Staphylococus epidermidis (MRSE); experiment: MIC, NCCLS microdilution broth procedure, MRSE; conditions: for MIC: Staphylococcus epidermidis, read-out: minimum inhibitory concentration (MIC)
Description: as §1, §2

[5] = tested on: glycopeptide-intermediate Staphylococus aureus (GISA) (V); experiment: MIC, NCCLS microdilution broth procedure, GISA (V)
Description: as §1, §2

[6] = tested on: glycopeptide-intermediate Staphylococus aureus (GISA) (D); experiment: MIC, NCCLS microdilution broth procedure, GISA (D)
Description: as §1, §2

[7] = MRSA strain # 134, read-out: minimum inhibitory concentration (MIC)
[8] = MRSA strain # 143, read-out: minimum inhibitory concentration (MIC)
[9] = GISA (V) strain # 68, read-out: minimum inhibitory concentration (MIC)
[10] = GISA (V) strain # 143, read-out: minimum inhibitory concentration (MIC)
[11] = GISA (D) strain # 68, read-out: minimum inhibitory concentration (MIC)
[12] = read-out: minimum inhibitory concentration (MIC)

Row | MIC ([1]; MSSA strain # 68) [µg/mL] | MIC [2, 7] [µg/mL] | MIC [2, 8] [µg/mL] | MIC ([3]; MSSE strain # 3) [µg/mL] | MIC ([4]; MRSE strain # 24) [µg/mL] | MIC [5, 9] [µg/mL] | MIC [5, 10] [µg/mL] | MIC [6, 11] [µg/mL] | SMILES | minimum inhibitory concentration (MIC) ([1]; MSSA strain # 83) [µg/mL] | minimum inhibitory concentration (MIC) ([2]; MRSA strain # 143) [µg/mL] | minimum inhibitory concentration (MIC) ([3]; MSSE strain # 10) [µg/mL] | minimum inhibitory concentration (MIC) ([4]; MRSE strain # 25) [µg/mL] | minimum inhibitory concentration (MIC) ([4]; MRSE strain # 26) [µg/mL] | minimum inhibitory concentration (MIC) ([5]; GISA (V) strain # 143) [µg/mL] | minimum inhibitory concentration (MIC) ([6]; GISA (D) strain # 143) [µg/mL] | MIC ([1]; MSSA) [µg/mL] | MIC [3] [µg/mL] | MIC ([4]; MRSE) [µg/mL] | other results
1 | – | – | – | – | – | – | – | – | CC(C)C[C@@H](N)C(=O)N[C@H]1C(=O)N[C@@H](CC(N)=O)C(=O)N[C@H]2C(=O)N[C@H]3C(=O)N[C@H](C(=O)N[C@H](C(=O)O)c4cc(O)cc(O)c4-c4cc3ccc4O)[C@H](O)c3ccc(c(Cl)c3)Oc3cc2cc(c3O[C@@H]2O[C@H](CO)[C@@H](O)[C@H](O)[C@H]2O[C@H]2C[C@](C)(N)[C@H](O)[C@H](C)O2)Oc2ccc(cc2Cl)[C@H]1O [Nor, norvancoycin, reference compound] | 2 (≈ 1.39 µM) | 2 (≈ 1.39 µM) | 2 (≈ 1.39 µM) | 2 (≈ 1.39 µM) | 2 (≈ 1.39 µM) | 8 (≈ 5.57 µM) | 4 (≈ 2.79 µM) | – | – | – | minimum inhibitory concentration (MIC) ([1]; MSSA strain # 68): 2 µg/mL (≈ 1.39 µM); minimum inhibitory concentration (MIC) ([2]; MRSA strain # 134): 2 µg/mL (≈ 1.39 µM); minimum inhibitory concentration (MIC) ([3]; MSSE strain # 3): 2 µg/mL (≈ 1.39 µM); minimum inhibitory concentration (MIC) ([4]; MRSE strain # 24): 2 µg/mL (≈ 1.39 µM); minimum inhibitory concentration (MIC) ([5]; GISA (V) strain # 68): 4 µg/mL (≈ 2.79 µM); minimum inhibitory concentration (MIC) ([6]; GISA (D) strain # 68): 4 µg/mL (≈ 2.79 µM)
2 | 0.5 (≈ 0.306 µM) | 0.5 (≈ 0.306 µM) | 0.5 (≈ 0.306 µM) | 0.5 (≈ 0.306 µM) | 0.5 (≈ 0.306 µM) | 1 (≈ 0.611 µM) | 1 (≈ 0.611 µM) | 1 (≈ 0.611 µM) | CC(C)C[C@H](N)C(=O)N[C@H]1C(=O)N[C@@H](CC(N)=O)C(=O)N[C@H]2C(=O)N[C@H]3C(=O)NC(C(=O)N[C@H](C(=O)O)c4cc(O)cc(O)c4-c4cc3ccc4O)[C@H](O)c3ccc(c(Cl)c3)Oc3cc2cc(c3OC2O[C@H](CO)[C@@H](O)[C@H](O)C2O[C@H]2C[C@](C)(NCc3ccc(-c4ccc(Cl)cc4)cc3)[C@H](O)[C@H](C)O2)Oc2ccc(cc2Cl)[C@H]1O (some centres unmarked) [Compound B, N-Chloro-Biphenyl-Methyl-Desmethyl-vancomycin] | 0.5 (≈ 0.306 µM) | – | 0.5 (≈ 0.306 µM) | 0.5 (≈ 0.306 µM) | 0.5 (≈ 0.306 µM) | – | 1 (≈ 0.611 µM) | – | – | – | –
3 | 2 (≈ 1.25 µM) | 2 (≈ 1.25 µM) | 4 (≈ 2.5 µM) | 4 (≈ 2.5 µM) | 4 (≈ 2.5 µM) | 8 (≈ 5 µM) | 4 (≈ 2.5 µM) | 8 (≈ 5 µM) | CC(C)C[C@H](N)C(=O)N[C@H]1C(=O)N[C@@H](CC(N)=O)C(=O)N[C@H]2C(=O)N[C@H]3C(=O)NC(C(=O)N[C@H](C(=O)O)c4cc(O)cc(O)c4-c4cc3ccc4O)[C@H](O)c3ccc(c(Cl)c3)Oc3cc2cc(c3OC2O[C@H](CO)[C@@H](O)[C@H](O)C2O[C@H]2C[C@](C)(NCc3ccc(-c4ccccc4)cc3)[C@H](O)[C@H](C)O2)Oc2ccc(cc2Cl)[C@H]1O (some centres unmarked) [Compound A, N-Biphenyl-Methyl-Desmethyl-vancomycin] | 2 (≈ 1.25 µM) | – | 4 (≈ 2.5 µM) | 4 (≈ 2.5 µM) | 4 (≈ 2.5 µM) | – | 8 (≈ 5 µM) | – | – | – | –
4 | – | – | – | – | – | – | – | – | CN[C@H](CC(C)C)C(=O)N[C@H]1C(=O)N[C@@H](CC(N)=O)C(=O)N[C@H]2C(=O)N[C@H]3C(=O)N[C@H](C(=O)N[C@H](C(=O)O)c4cc(O)cc(O)c4-c4cc3ccc4O)[C@H](O)c3ccc(c(Cl)c3)Oc3cc2cc(c3O[C@@H]2O[C@H](CO)[C@@H](O)[C@H](O)[C@H]2O[C@H]2C[C@](C)(N)[C@H](O)[C@H](C)O2)Oc2ccc(cc2Cl)[C@H]1O [Van, vancomycin] | 2 (≈ 1.38 µM) | 2 (≈ 1.38 µM) | 2 (≈ 1.38 µM) | 2 (≈ 1.38 µM) | 2 (≈ 1.38 µM) | 8 (≈ 5.52 µM) | – | 2 (≈ 1.38 µM) | 2 (≈ 1.38 µM) | 2 (≈ 1.38 µM) | MIC [2, 12]: 2 µg/mL (≈ 1.38 µM); MIC [5, 12]: 8 µg/mL (≈ 5.52 µM); MIC ([6]; read-out: minimum inhibitory concentration (MIC), GISA (D) strain # 68): 8 µg/mL (≈ 5.52 µM); MIC ([6]; read-out: minimum inhibitory concentration (MIC), GISA (D) strain # 143): 4 µg/mL (≈ 2.76 µM)
5 | – | – | – | – | – | – | – | – | CCCCCCCCOc1ccc(CNCC(=O)N[C@@]2(C)C[C@H](OC3C(Oc4c5cc6cc4Oc4ccc(cc4Cl)[C@@H](O)[C@@H](NC(=O)[C@@H](N)CC(C)C)C(=O)N[C@@H](CC(N)=O)C(=O)N[C@H]6C(=O)N[C@H]4C(=O)NC(C(=O)N[C@H](C(=O)O)c6cc(O)cc(O)c6-c6cc4ccc6O)[C@H](O)c4ccc(c(Cl)c4)O5)O[C@H](CO)[C@@H](O)[C@@H]3O)O[C@@H](C)[C@H]2O)cc1 (some centres unmarked) [Compound C, Desmethyl-vancomycin-Gly-p-n-Octyloxybenzyl] | 2 (≈ 1.17 µM) | – | 1 (≈ 0.585 µM) | 2 (≈ 1.17 µM) | 2 (≈ 1.17 µM) | – | 4 (≈ 2.34 µM) | 2 (≈ 1.17 µM) | 1 (≈ 0.585 µM) | 2 (≈ 1.17 µM) | MIC ([2]; read-out: minimum inhibitory concentration (MIC), MRSA strain # 134): 2 µg/mL (≈ 1.17 µM); MIC ([2]; read-out: minimum inhibitory concentration (MIC), MRSA strain # 143): 1 µg/mL (≈ 0.585 µM); MIC ([5]; read-out: minimum inhibitory concentration (MIC), GISA (V) strain # 68): 4 µg/mL (≈ 2.34 µM); MIC ([5]; read-out: minimum inhibitory concentration (MIC), GISA (V) strain # 143): 2 µg/mL (≈ 1.17 µM); MIC [6, 12]: 4 µg/mL (≈ 2.34 µM)

— patent US20090131304A1, “Semi-Synthetic Desmethyl-Vancomycin-Based Glycopeptides With Antibiotic Activity” (Novartis Vaccines and Diagnostics, Inc., priority 2005, published 2009)
